Reference: article PMC12502564, “Evaluation of LLM-generated peptide as foundation template for discovery of effective encrypted AMPs against clinical superbugs” (Microbiology Spectrum, 2025)
No end group written: not given here.

Experiments:
HEK293 cells = format: cell-based
Procedure: Cytotoxicity of AMPs was determined using the Cell Counting Kit-8. HEK293 cells, bought from Procell (Wuhan, China), were inoculated in 96-well flat-bottom plates according to 5,000 cells/well in cell culture medium. After 24-h incubation at 37°C with 5% CO2 in atmosphere, medium was replaced with fresh medium and incubated with antimicrobial peptide solutions at various concentrations for 48 h. Cell viability was monitored by adding CCK-8 solution and measuring OD450 after 4 h. Zero-well and control-well were set during this experimental process. All experiments were performed with three independent replicates. The cell survival rate was calculated by the following formula, and the CC50 value of each AMPs was calculated by online tools: https://www.aatbio.com/tools/ic50-calculator. (2) Cell survival rate (%)=OD(AMP)− OD(zero)/OD(control)− OD(zero)×100%

MRSA = experiment: MBC determination, MBC/MIC ratio; format: cell-based, methicillin-resistant Staphylococcus aureus; conditions: MBC/MIC ≤4 is considered bactericidal
Procedure: The MBC was determined using the microdilution broth method described above for MIC determination. After identifying the clear wells (no growth), 10 µL of the liquid from these wells was transferred and spread on a nutrient agar plate. The plate was incubated at 37°C for 18–24 h. […] The lowest concentration with no visible growth was considered the MBC.

CRAB 2210186 = experiment: Thigh infection mouse model; format: in vivo, BALB/c mice; conditions: neutropenic mice, ~1 × 10^6 CFU in thigh, i.p. at 1, 3, 5, 7 h post-infection (PL-15 10 × MIC, 100 µL; polymyxin B 20,000–25,000 U kg^−1 day^−1), n = 8
Source text: The WHO has classified CRAB as a “Critical Priority” pathogen in its Priority Pathogens List, recognizing it as a predominant causative agent of hospital-acquired infections ([2]). This classification reflects CRAB’s global dissemination, high mortality rates, and extreme resistance profiles. Given this critical situation, a thigh infection model was employed to evaluate the in vivo therapeutic efficacy of PL-15 against CRAB. To establish the mouse thigh infection model, mice were pre-treated intraperitoneally with cyclophosphamide 4 days and 1 day prior to bacterial inoculation to induce neutropenia, administered at doses of 150 mg kg^−1 and 100 mg kg^−1, respectively ([51]). Each mouse was then injected with approximately 10^6 colony-forming unit (CFU) of CRAB in the thigh tissue, followed by four intraperitoneal injections of PL-15, polymyxin B, or phosphate-buffered saline (PBS) within 24 h of infection (Fig. 3a).
All animal experiments were performed according to the “Principles of Laboratory Animal Care” (NIH publication No. 86-23, revised 1985) and approved by the Animal Care and Use Committee of Shandong University (LL20240622, Jinan, China). Five-week-old male BALB/c mice were purchased from Beijing Vital River Laboratory Animal Technology Co., Ltd. (Beijing, China) and kept under a 12-hour light/12-hour dark cycle, humidity of 50%, and temperature of 22°C in standard specific pathogen-free individually vented cages.
To establish the mouse thigh infection model, mice were injected intraperitoneally with cyclophosphamide 4 d and 1 d before bacterial administration, at concentrations of 150 and 100 mg kg^−1, respectively, to induce neutropenia ([51]). CRAB 2210186 cells were suspended in sterile PBS, adjusted to a concentration of ~1 × 10^6 CFU per infection site and injected into the right thighs of eight mice per treatment group. PL-15 (10 × MIC, 100 µL), polymyxin B (20,000–25,000 U kg^−1 day^−1) or PBS were administered intraperitoneally at 1, 3, 5, and 7 h post-infection. Mice were euthanized 24 h after infection, and the thigh tissues were aseptically collected, weighed, homogenized, serially diluted in PBS, and plated onto solid MCA. The CFU of CRAB 2210186 per thigh was calculated by plating dilutions of the thigh homogenates (0.25 g of thigh tissue in 10 mL sterile PBS) on agar plates and counting colonies.

MRSA 2210187 = format: cell-based, methicillin-resistant Staphylococcus aureus; conditions: 2210187
Procedure: (§1) The MIC of all peptides was determined using the microdilution broth method in a 96-well plate. Peptides were dissolved in the DMSO with an initial concentration of 12,800 µg mL^−1. And cells of eight strains were separately suspended in the MHB at a density of approximately 10^5 CFU mL^−1. In the first column of the 96-well plate, 16 µL of peptide and 184 µL of MHB were added to each well to achieve a final concentration of 1,024 µg mL^−1. One-hundred microliters of MHB was added to each of the remaining wells. Then the first column of liquid was mixed well and diluted to the 12th column using the twofold dilution method. One-hundred microliters of prepared bacterial solution was added to all wells, and the 96-well plate was incubated at 37°C for 18–24 h. The MIC was defined as the concentration of the peptide in the well just preceding the first well showing visible turbidity. All experiments were performed in triplicate to ensure reliability.

CRKP 2403276 = format: cell-based, carbapenem-resistant K. pneumoniae
Procedure: as §1

A. baumannii ATCC19606 = format: cell-based, Acinetobacter baumannii
Procedure: as §1

CRAB = experiment: ROS accumulation assay (DCFH-DA); format: cell-based, carbapenem-resistant Acinetobacter baumannii; conditions: 10 µM DCFH-DA, 2 h incubation
Procedure: Bacteria in the logarithmic growth phase were prepared to OD600 = 0.5. Ten microliters of DCFH-DA was added to 190 µL of bacterial solution to a final concentration of 10 µM and incubated at 37°C for 30 min. After washing with PBS three times, 190 µL of probe-labeled bacterial cells were added to a 96-well plate, and 10 µL of the sample to be tested was added. After incubation for another 2 h, the fluorescence intensity was immediately measured using a microplate reader with an excitation wavelength of 488 nm and an emission wavelength of 525 nm. The antioxidant NAC (6 mM) was used as a control to neutralize the production of ROS.

WLKRILKWIGNKLKW [PL-15]
log2CC50 (50% cell viability) (HEK293 cells): ≥ 3
bactericidal classification by MBC/MIC ratio (MRSA): bactericidal effects
reduction of bacterial load compared to the PBS control group (CRAB 2210186; 24 h): two orders of magnitude
bacteria eradicated in the thigh tissue within 24 h (CRAB 2210186): over 97%
MIC (MRSA 2210187): 2 µg/mL
MIC (CRKP 2403276): lower than 11 µg mL^−1
MIC (A. baumannii ATCC19606): lower than 11 µg mL^−1
ROS levels (DCF fluorescence) (CRAB): concentration-dependent surge in ROS levels
